The values below come from patent US8039668B2, “Naphthalene-based inhibitors of anti-apoptotic proteins” (Burnham Institute for Medical Research, priority 2008, dated 2011).

Where two headings read alike, the source gives them in different places.

In general, IC50 refers to the concentration that gives 50% inhibition. By Kd is commonly meant the constant that tells how readily two partners part at equilibrium. One may read the EC50 as the concentration that produces a half-maximal response.

Data set [1] deals with T1, BCL-XL (Homo sapiens, UniProt Q07817). Put plainly: 1D 1H-NMR binding assay. Also noted: key to 1D-^1H NMR: +++, Very Active; ++, Active; +, Mild; −, Weak. The conditions noted are these: Table 3; BCL-XL 25 μM, compound 200 μM. How it is done:
By observing the aliphatic region of the spectra, binding could be readily detected due to chemical shift changes in active site methyl groups of Ile, Leu, Thr, Val or Ala (region between −0.8 and 0.3 ppm). All experiments were performed with a 600 MHz spectrometer Bruker Avance 600 equipped with four rf channels and z-axis pulse-field gradients.
Target sequence in this assay (Q07817 whole entry): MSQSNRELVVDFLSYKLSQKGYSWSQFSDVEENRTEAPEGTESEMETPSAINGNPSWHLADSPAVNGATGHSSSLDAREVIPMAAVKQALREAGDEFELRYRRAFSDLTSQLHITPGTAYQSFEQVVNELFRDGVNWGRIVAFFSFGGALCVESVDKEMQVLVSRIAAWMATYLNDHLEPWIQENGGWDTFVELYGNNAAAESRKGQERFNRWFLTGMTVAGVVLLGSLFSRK

Data set [2] has as its target Bcl-2 (Homo sapiens, UniProt P10415). Put plainly: Competitive fluorescence polarization assay (FPA), Bim BH3 peptide. It is filed as binding.
Data set [3] concerns the target Mcl-1 (Homo sapiens, UniProt Q07820). The description is as above. The class given is binding.
In data set [4] the target is T2, Bfl-1 (Homo sapiens, UniProt Q16548).
T2 sequence (Q16548 1-175): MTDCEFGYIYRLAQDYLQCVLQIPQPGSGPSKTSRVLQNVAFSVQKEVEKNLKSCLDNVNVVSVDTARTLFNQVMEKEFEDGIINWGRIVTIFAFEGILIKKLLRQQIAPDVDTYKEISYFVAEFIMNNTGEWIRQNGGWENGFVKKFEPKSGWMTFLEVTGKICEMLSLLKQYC
Put plainly: Competitive fluorescence polarization assay (FPA). It is filed as binding. (Polarisation of emitted light reports the rotation of a fluorescent probe.)

The target of data set [5] is T1, BCL-XL. As to the kind of experiment: Isothermal titration calorimetry (ITC). It is filed as binding. How it is done: Titrations were performed using a VP-ITC or ITC200 calorimeter from Microcal (Northampton, Mass.). BCL-XL was used at concentrations between 25 and 100 μM in 20 mM sodium phosphate buffer (pH 7.4) and 5-10% DMSO. Titrants were used at concentrations 10-15 fold of that of the protein in the same buffer. Titrations were carried out at 25° C. Data were analyzed using Microcal Origin software provided by the ITC manufacturer (Microcal, Northampton, Mass.).
A general note: ITC needs no label: the signal is the heat of the interaction.
Target sequence in this assay (Q07817 whole entry): as the sequence (Q07817 whole entry) above

Data set [6] concerns H1299 cell line. Put plainly: Cell viability, ATP-LITE assay. The class given is cell-based, human. To be noted: Homo sapiens, NCI-H1299. In outline: (§1)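 Human cancer lines were seeded at 2000 (H460, H1299), 3000 (PC3) or 10,000 (RS11846) cells/well in F12 or RPMI1640 with 5% FBS. Compounds were added in 0.1% DMSO 24 h after seeding. Viability was read by ATP-LITE luminescence after 72 h and normalized to DMSO controls.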

For data set [7], the system named is PC3ML cells. Put plainly: Cell viability, ATP-LITE assay. The class given is cell-based, human. To be noted: Homo sapiens, PC3-ML, Table 3; ATP-LITE assay; heading: EC50 PC3ML; read-out: EC50 PC3ML. Put shortly: as §1
Data set [8] concerns H460 human lung cell line. As to the kind of experiment: Cell viability, ATP-LITE assay. The class given is cell-based. To be noted: for IC50: read-out: IC50 inhibiting cell growth, H460. In outline: as §1
In data set [9] the test system is human lymphoma RS11846 cell line. As to the kind of experiment: Apoptosis, Annexin V-FITC and propidium iodide assay. The class given is cell-based. To be noted: Homo sapiens, Annexin V-FITC and propidium iodide assay, read-out: EC50 RS11846.
Data set [10] relates to BP3 human B-cell lymphoma cell line. Put plainly: Annexin V-FITC and propidium iodide assay. The class given is cell-based. To be noted: for EC50: Annexin V-FITC and propidium iodide assay, read-out: EC50 BP3.
In data set [11] the test system is Bax/Bak double knockout mouse embryonic fibroblast cells (MEF/DKO). Put plainly: FITC-Annexin V/PI cytotoxicity in Bax/Bak double knockout cells. To be noted: 10 μM. The class given is cell-based.
Protocol: MEF/WT and MEF/DKO cells were seeded in 24-well plate at a seeding density of half a million per well (in 1 ml of DMEM medium supplemented by 10% FCS). […] On the following day, floating cells were pooled with adherent cells harvested after brief incubation with 0.25% Trypsin/EDTA solution (Gibco/In-Vitrogen Inc.). Cells were centrifuged and supernatant was discarded, and cell pellet was re-suspended with 0.2 ml of Annexin-V binding buffer, followed by addition of 1 μl Annexin-FITC and 1 μl PI (propidium iodide). The percentage of viable cells was determined by a 3-color FACSort instrument and data analyzed by Flow-Jo program, scoring Annexin V-negative, PI-negative as viable cells.
A short description of data set [12]: Chemical stability of solid compounds at room temperature (HPLC, LCMS). The conditions noted are these: in air, Apogossypol in the absence of ascorbic acid. The source says:
The stability of compound was monitored using a combination of HPLC and LCMS.

Data set [13] in a line: Plasma stability. The class given is in vitro ADME, rat. The conditions noted are these: for Plasma stability (T = 1 h): Table 6, rat plasma. As to the method: Plasma Stability. A 20 μL aliquot of a 10 mM solution in DMSO of the test compound was added to 2.0 mL of heparinized rat plasma (Lampire, P1-150N) to obtain a 100 μM final solution. The mixture was incubated for 1 h at 37.5° C. Aliquots of 100 μL were taken (0, 30 min, 1 h) and diluted with 200 μL of MeOH containing internal standard.

Data set [14] is described as follows: Liver microsomal stability. To be noted: Table 6; rat liver microsomes, 1 h. It is filed as in vitro ADME, rat. The source says:
Liver Microsomal Stability.

Data set [15] has as its system B6Bcl-2 transgenic mice. In outline:
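B6 line BCL-2 transgenic mice (human BCL-2 fused to IgH locus/enhancer, Balb/c background) sacrificed 24 h post-treatment by lethal i.p. Avertin. Spleen removed and weighed, fixed 3 days in z-FIX for H&E and TUNEL histology.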

The target in data set [16] is T1, BCL-XL. Put plainly: Competitive fluorescence polarization assay (FPA), Bak BH3 peptide. It is filed as binding. Also noted: 100 nM GST-BCL-XL ΔTM protein. In outline: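 100 nM GST-BCL-XL ΔTM preincubated with compound in PBS pH 7.4 for 10 min at room temperature, then FITC-Bak BH3 peptide added. Polarization read after 10 min. IC50 from sigmoidal dose-response fit; mean ± SE of three independent experiments.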
Target sequence in this assay (Q07817 1-209 limits assumed): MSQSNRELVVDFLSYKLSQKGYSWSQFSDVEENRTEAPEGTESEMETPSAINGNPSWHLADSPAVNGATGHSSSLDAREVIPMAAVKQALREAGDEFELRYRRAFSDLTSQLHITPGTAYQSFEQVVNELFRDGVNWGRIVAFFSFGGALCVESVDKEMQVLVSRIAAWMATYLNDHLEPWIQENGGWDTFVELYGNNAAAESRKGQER

Data set [17] concerns Balb/c mice. The source says:
Upon conclusion of the study, mice were euthanized by CO2, and vital organs were harvested and fixed with z-FIX solution for 3 days at room temperature, rinsed in PBS three times, for further histological evaluation.

Chain of Bcl-2 (P10415 whole entry): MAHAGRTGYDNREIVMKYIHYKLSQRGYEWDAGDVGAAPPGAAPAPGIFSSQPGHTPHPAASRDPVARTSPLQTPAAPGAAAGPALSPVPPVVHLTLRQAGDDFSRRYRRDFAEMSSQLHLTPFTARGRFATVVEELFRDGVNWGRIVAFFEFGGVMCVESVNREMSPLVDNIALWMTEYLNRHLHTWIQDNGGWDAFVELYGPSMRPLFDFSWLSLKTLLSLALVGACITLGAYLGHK
Chain of Mcl-1 (Q07820 whole entry): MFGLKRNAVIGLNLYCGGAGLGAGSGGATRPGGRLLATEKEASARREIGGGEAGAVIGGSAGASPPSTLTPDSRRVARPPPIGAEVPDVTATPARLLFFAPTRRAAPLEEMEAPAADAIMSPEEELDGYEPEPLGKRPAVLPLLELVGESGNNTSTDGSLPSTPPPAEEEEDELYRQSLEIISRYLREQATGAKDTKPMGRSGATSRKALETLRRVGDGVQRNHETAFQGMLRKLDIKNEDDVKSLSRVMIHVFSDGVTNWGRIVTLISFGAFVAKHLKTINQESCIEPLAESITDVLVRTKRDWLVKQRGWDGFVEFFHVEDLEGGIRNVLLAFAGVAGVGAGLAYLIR

With `CCc1ccc(CCNC(=O)c2c(O)c(O)cc3c(O)c(-c4c(C)cc5c(C(=O)NCCc6ccc(CC)cc6)c(O)c(O)cc5c4O)c(C)cc23)cc1` [Compound 8q, N^5,N^5′-bis(4-ethylphenethyl)-1,1′,6,6′,7,7′-hexahydroxy-3,3′-dimethyl-2,2′-binaphthyl-5,5′-dicarboxamide], in data set [1], the “1D-^1H NMR” value is given as “+++”. The IC50 was 670 nM in data set [2]; 590 nM in data set [3]; 1300 nM in [4]; 360 nM in data set [6] (read-out: IC50 cell inhibition, H1299); 400 nM in [8] (Homo sapiens, NCI-H460); 200 nM in data set [10] (Homo sapiens, B-cell, read-out: IC50 inhibiting cell growth, BP3). Also, in [16] (read-out: IC50 FPA Bcl-XL), the IC50 turned out to be 930 nM. The same compound registered a Kd in data set [5] of 120 nM. In addition, the EC50 was 360 nM in data set [6] (Table 3, ATP-LITE assay, read-out: EC50 H1299); 1700 nM in data set [7]; 400 nM in data set [8] (Homo sapiens, NCI-H460, Table 3, ATP-LITE assay, read-out: EC50 H460); 3000 to 5800 nM in data set [9]; 3000 nM in [9] (Table 3, heading: EC50 RS11846); 200 nM in data set [10] (Homo sapiens, B-cell, Table 3). The MEF/DKO cells killed in data set [11] is recorded as 20-35%. For the same compound, the “degraded after 60 days at room temperature” value in [12] is given as 10%. The “Plasma stability (T = 1 h)” value in [13] is on record as 94%. Further, in data set [14], the “Microsomal Stability (T = 1 h)” value is listed as 87%. For the same compound, the Tox in [15] (Bcl-2 transgenic mouse, single ip injection 72 μmol/kg) is reported as 4+.

Regarding `Cc1cc2c(C(=O)NCC(C)c3ccccc3)c(O)c(O)cc2c(O)c1-c1c(C)cc2c(C(=O)NCC(C)c3ccccc3)c(O)c(O)cc2c1O` (stereo not drawn) [Compound 8r, 1,1′,6,6′,7,7′-hexahydroxy-3,3′-dimethyl-N^5,N^5′-bis(2-phenylpropyl)-2,2′-binaphthyl-5,5′-dicarboxamide], the “1D-^1H NMR” value in [1] was “++”. Moreover, the “times more potent than Apogossypol, FP Bfl-1” value in data set [4] (vs Apogossypol) was “approximately 10”. Further, the “times more potent than Apogossypol, ITC Bcl-XL” value in [5] (vs Apogossypol) was 15. Also, the half-maximal inhibitory concentration (IC50) in [8] (Homo sapiens, NCI-H460) came to 330 nM. For the same compound, in [8] (vs Apogossypol), the “times more potent than Apogossypol, H460” value is listed as 7-10. Besides, the EC50 in data set [10] (Homo sapiens, B-cell) is 660 nM. Further, the “times more potent than Apogossypol, BP3” value in data set [10] (vs Apogossypol) is 7-10. Further, in [11], the MEF/DKO cells killed is 20-35%. The “degraded after 60 days at room temperature” value in data set [12] turned out to be 10%. Moreover, the “degraded after 1 hour incubation in rat plasma” value in [13] (1 hour) is recorded as 4%. In [13], the “Plasma stability (T = 1 h)” value is 96%. In data set [14], the “Microsomal Stability (T = 1 h)” value came to 76%. Moreover, in [15] (B6Bcl-2 transgenic (Balb/c background), mouse, in vivo, 42 mg/kg, 24 h), the GI toxicity entry is recorded as “mild signs of GI toxicity”. The “average weight loss of mice” value in data set [15] (mouse, in vivo, 42 mg/kg) turned out to be 7.8%. The “percentage of maximum reduction in spleen weight (maximal biological activity)” value in [15] (single ip 72 μmol/kg, maximum shrinkage no more than 50%) was 85-95%. For the same compound, the spleen weight reduction result in [15] (single mouse, single ip 72 μmol/kg) is recorded as “more than 40%”. The weight loss result in data set [17] (mouse, in vivo, ip, 50 mg/kg) is listed as “around 13%”. Further, in data set [17] (single ip 100, 75, 50, 25 and 12.5 mg/kg, 14 days), the mortality result is listed as “All mice were alive after 14 days”. The “times more effective than Apogossypol, FP Bcl-XL” value in data set [16] (vs Apogossypol) came to 5.
